14 compounds from patent publication US8969325B2, “TRPV1 antagonists” (AbbVie Inc., priority 2011, dated 2015) can be followed below.

Broadly, the IC50 is the midpoint of a concentration-inhibition curve.

Molecules are shown by their SMILES.

Data set [1] concerns the target T1, human TRPV1 (Homo sapiens (Human), UniProt Q8NER1). The data set can be described thus: Capsaicin Activation Assay (intracellular Ca2+, FLIPR). Type of data set: cell-based. The note with it: recombinant HEK293 cells expressing hTRPV1, 50 nM capsaicin. An outline of the steps:
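Stably transfected HEK293 cells expressing human TRPV1 cDNA, plated the day before in poly-D-lysine plates. Compounds serially diluted from 10 mM DMSO stocks; intracellular Ca2+ fluorescence read on FLIPR at 1 to 5 second intervals.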

The test system of data set [2] is rats. The data set can be described thus: Rat acute capsaicin-induced flinching behavior. Type of data set: in vivo. As to conditions: 1 h, oral dose given as 100 nmol/kg, capsaicin 2.5 μg into hind paw one hour after compound, five minute observation, relative to control-treated animals, read-out: % effect (percent reduction in the number of flinching behaviors). On the procedure:
Rats were placed in individual observation cages. Following an acclimation period of 30 minutes, selected compounds were administered orally at a dose of 100 nmol/kg in a vehicle (10% ethanol/20% Tween 80/70% polyethylene glycol-400) at a volume of 2 mL/kg. One hour after administration of the compound, 2.5 μg of capsaicin in a 10 μL solution of 10% ethanol/90% hydroxypropyl-β-cyclodextrin was injected subcutaneously into the dorsal aspect of the right hind paw. The observation cage was then suspended above mirrors in order to facilitate observation. […] The number of flinching behaviors of the injured paw was recorded during the five minute observation period (Gilchrist, H. D.; Allard, B. L.; Simone, D. A.; Enhanced withdrawal responses to heat and mechanical stimuli following intraplantar injection of capsaicin in rats. Pain, 1996, 67, 179-188). The percent reduction in the number of flinching behaviors produced from oral administration of the test compounds relative to control-treated animals (% effect) is reported in Table 2.

The target in data set [3] is T1, human TRPV1. The data set can be described thus: Acid Activation Assay (pH 5.0, intracellular Ca2+, FLIPR). Format: cell-based. The note with it: percentage of the maximal pH 5.0-induced response remaining; recombinant HEK293 hTRPV1 cells; maximum concentration tested 37.5 μM. Put shortly:
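HEK293 cells stably expressing recombinant hTRPV1, loaded with Calcium-4 dye 90-120 min at 25° C. Compounds added over a 12-point half-log range (top 37.5 μM), then pH 5.0 DPBS/MES challenge after 3 min; FLIPR peak fluorescence over baseline given as % of maximal pH 5.0 response.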

Data set [4] deals with rats. As to the kind of experiment: Sodium iodoacetate-induced knee joint osteoarthritic pain model (hind limb grip force). Type of data set: in vivo. The note with it: rat, po, single acute dose, 1 hour after administration, 20 days after sodium iodoacetate, read-out: % effect (% return to normalcy of hind limb grip force). As for the experimental part:
Unilateral knee joint osteoarthritis was induced in the rats by a single intra-articular (i.a.) injection of sodium iodoacetate (3 mg in 0.05 mL sterile isotonic saline) into the right knee joint cavity under light isoflurane anesthesia using a 26 G needle. […] Pain behavioral assessment of hind limb grip force was conducted by recording the maximum compressive force exerted on the hind limb strain gauge setup, in a commercially available grip force measurement system (Columbus Instruments, Columbus, Ohio). The grip force data was converted to a maximum hindlimb cumulative compressive force (CFmax) (gram force)/kg body weight for each animal. The analgesic effects of test compounds were determined 20 days following the i.a. injection of sodium iodoacetate. The vehicle control group for each compound being tested was assigned 0% whereas the age matched naïve group was assigned as being 100% (normal). The % effect for each dose group was then expressed as % return to normalcy compared to the naïve group. Test compounds were administered orally in 10% ethanol/20% Tween 80/70% polyethylene glycol-400 vehicle at a volume of 2 mL/kg. The assessment of the analgesic effects of test compounds was made 1 hour following oral administration. The assessment of the analgesic effects of test compounds can be made following a single dose or following repeated administration wherein the frequency of dosing is 1 to 2 times daily. The duration of such repeated daily dosing may last for any time greater than one day. A typical duration of repeated daily dosing is about 5 days to about 12 days.

Data set [5] concerns rats. The data set can be described thus: Rat tail immersion assay of noxious thermosensation. Format: in vivo. The note with it: morphine 6 mg/kg i.p. in saline, 55° C. water bath, relative to vehicle control. As for the experimental part:
Compounds were tested for their effects on noxious thermosensation using the tail immersion assay. Testing was performed one hour following oral administration of 100 μmol/kg of the compound in 10% ethanol/20% Tween-80/70% PEG-400 (2 mL/kg). Mophine (6 mg/kg) was administered interperitoneally (i.p.) using saline (2 mL/kg) as the vehicle. For testing, a circulating water bath was heated to 55° C. Thirty to sixty minutes post dosing, the rats were handled for a few seconds to calm them down and then cupped with their back against the testers hand at a slight angle with head facing away from tester. With rat in one hand and a 0.01 second stopwatch in the other hand, the tail was quickly immersed 6-8 cm in water bath or to a distance leaving 2-3 cm of tail out of water. The timer was started simultaneously. When the rat flinched or attempted withdrawal, timer was immediately stopped and the rat's tail was quickly removed from water bath. This response latency (in seconds) was recorded. Process was repeated 3 times with 3-4 minutes between readings for a final average.
For a given compound, a percent increase in the average response latency (in seconds) for tail withdrawal relative to a vehicle control was determined % increase=[(tc−tv)/tv]×100% […]
Table 1 reports the % increase in tail withdrawal latency measured for the compounds tested. […]

T1 sequence (Q8NER1 whole entry): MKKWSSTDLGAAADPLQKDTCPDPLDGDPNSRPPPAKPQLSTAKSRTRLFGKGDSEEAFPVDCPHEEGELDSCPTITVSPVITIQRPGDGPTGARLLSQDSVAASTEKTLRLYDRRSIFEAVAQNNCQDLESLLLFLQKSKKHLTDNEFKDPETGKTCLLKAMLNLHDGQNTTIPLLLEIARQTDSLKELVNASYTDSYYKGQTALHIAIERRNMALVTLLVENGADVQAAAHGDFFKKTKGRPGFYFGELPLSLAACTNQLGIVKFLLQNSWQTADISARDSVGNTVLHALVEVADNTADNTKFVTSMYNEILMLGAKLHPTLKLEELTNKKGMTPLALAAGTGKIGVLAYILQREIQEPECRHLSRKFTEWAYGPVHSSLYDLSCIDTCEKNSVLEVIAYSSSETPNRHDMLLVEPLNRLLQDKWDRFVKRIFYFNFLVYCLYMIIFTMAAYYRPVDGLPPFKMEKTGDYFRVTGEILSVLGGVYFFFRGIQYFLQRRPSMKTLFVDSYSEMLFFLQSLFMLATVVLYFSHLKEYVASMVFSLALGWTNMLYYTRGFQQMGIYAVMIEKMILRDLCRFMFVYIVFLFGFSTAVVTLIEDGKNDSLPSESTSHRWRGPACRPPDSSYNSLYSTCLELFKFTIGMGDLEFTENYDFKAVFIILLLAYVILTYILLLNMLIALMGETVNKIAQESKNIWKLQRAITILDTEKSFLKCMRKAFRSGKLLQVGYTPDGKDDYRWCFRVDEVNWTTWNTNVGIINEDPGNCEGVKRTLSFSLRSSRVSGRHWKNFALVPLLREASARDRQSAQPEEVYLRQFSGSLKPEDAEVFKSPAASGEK

For the compound `CN1Cc2ccc(NC(=O)N[C@@H]3CCc4cc(Cl)ccc43)cc2NC1=O` [Example 17, 1-[(1R)-5-chloro-2,3-dihydro-1H-inden-1-yl]-3-(3-methyl-2-oxo-1,2,3,4-tetrahydroquinazolin-7-yl)urea], at human TRPV1 [1], the IC50 turned out to be 70 nM. Further, the inhibition in vivo at 0.1 µmol/kg in the data set with rats [2] amounted to 83%. The “human TRPV1 H^+ (max % remain)” value on human TRPV1 [3] is on record as 54%.

Take `CN1Cc2ccc(NC(=O)N[C@@H]3C[C@](C)(C(F)(F)F)Oc4ccccc43)cc2NC1=O` [Example 18, 1-(3-methyl-2-oxo-1,2,3,4-tetrahydroquinazolin-7-yl)-3-[(2R,4R)-2-methyl-2-(trifluoromethyl)-3,4-dihydro-2H-chromen-4-yl]urea]: on human TRPV1 [1], the half-maximal inhibitory concentration (IC50) came out at 48 nM. The inhibition in vivo at 0.1 µmol/kg with rats [2] was 64%. The inhibition in vivo at 13 mg/kg in the data set with rats [4] was 62%. Also, the “human TRPV1 H^+ (max % remain)” value at human TRPV1 [3] amounted to 51%.

With `Cn1c(=O)ccc2c(NC(=O)N[C@@H]3CC(C)(C)Oc4cc(F)ccc43)cccc21` [Example 19, 1-[(4R)-7-fluoro-2,2-dimethyl-3,4-dihydro-2H-chromen-4-yl]-3-(1-methyl-2-oxo-1,2-dihydroquinolin-5-yl)urea], the inhibition in vivo at 0.1 µmol/kg in the data set with rats [2] is 90%. For the same compound, the “human TRPV1 H^+ (max % remain)” value on human TRPV1 [3] worked out at 38%.

As for `Cn1c(=O)ccc2c(NC(=O)N[C@@H]3CC(C)(C)Oc4ccc(F)cc43)cccc21` [Example 24, 1-[(4R)-6-fluoro-2,2-dimethyl-3,4-dihydro-2H-chromen-4-yl]-3-(1-methyl-2-oxo-1,2-dihydroquinolin-5-yl)urea], the IC50 at human TRPV1 [1] is 21 nM. The inhibition in vivo at 0.1 µmol/kg in the data set on rats [2] worked out at 58%. Besides, the “human TRPV1 H^+ (max % remain)” value at human TRPV1 [3] came to 60%.

On to `Cn1c(=O)ccc2c(NC(=O)N[C@@H]3CC(CF)(CF)Oc4cc(F)ccc43)cccc21` [Example 27, 1-[(4R)-7-fluoro-2,2-bis(fluoromethyl)-3,4-dihydro-2H-chromen-4-yl]-3-(1-methyl-2-oxo-1,2-dihydroquinolin-5-yl)urea], for which, at human TRPV1 [1], the concentration for half-maximal inhibition (IC50) stood at 21 nM. Further, in the data set on rats [2], the inhibition in vivo at 0.1 µmol/kg came out at 33%. Besides, at human TRPV1 [3], the “human TRPV1 H^+ (max % remain)” value came to 42%.

In the case of `Cn1c(=O)ccc2c(NC(=O)N[C@@H]3C[C@](C)(C(F)F)Oc4ccccc43)cccc21` [Example 28, 1-[(2R,4R)-2-(difluoromethyl)-2-methyl-3,4-dihydro-2H-chromen-4-yl]-3-(1-methyl-2-oxo-1,2-dihydroquinolin-5-yl)urea], the half-inhibitory concentration (IC50) at human TRPV1 [1] worked out at 12 nM. The inhibition in vivo at 0.1 µmol/kg in the data set on rats [2] is 81%. Further, on human TRPV1 [3], the “human TRPV1 H^+ (max % remain)” value was determined as 53%.

In the case of `CC1(C)C[C@@H](NC(=O)Nc2ccc3c(c2)NC(=O)CC3)c2ccc(F)c(F)c2O1` [Example 33, 1-[(4R)-7,8-difluoro-2,2-dimethyl-3,4-dihydro-2H-chromen-4-yl]-3-(2-oxo-1,2,3,4-tetrahydroquinolin-7-yl)urea], on human TRPV1 [1], the IC50 turned out to be 20 nM. For the same compound, in the data set with rats [2], the inhibition in vivo at 0.1 µmol/kg turned out to be 59%. Further, the inhibition in vivo at 10 mg/kg with rats [4] turned out to be 37%. For the same compound, the “human TRPV1 H^+ (max % remain)” value at human TRPV1 [3] worked out at 42%.

Turning to `CN1C(=O)CCc2ccc(NC(=O)N[C@@H]3CCc4cc(C(F)(F)F)ccc43)cc21` [Example 36, 1-(1-methyl-2-oxo-1,2,3,4-tetrahydroquinolin-7-yl)-3-[(1R)-5-(trifluoromethyl)-2,3-dihydro-1H-inden-1-yl]urea], the concentration for half-maximal inhibition (IC50) at human TRPV1 [1] worked out at 34 nM. The inhibition in vivo at 0.1 µmol/kg in the data set on rats [2] is 60%. The “human TRPV1 H^+ (max % remain)” value at human TRPV1 [3] stood at 66%.

`CN1C(=O)CCc2ccc(NC(=O)N[C@@H]3CCOc4cc(C(F)(F)F)ccc43)cc21` [Example 37, 1-(1-methyl-2-oxo-1,2,3,4-tetrahydroquinolin-7-yl)-3-[(4R)-7-(trifluoromethyl)-3,4-dihydro-2H-chromen-4-yl]urea]: the 50% inhibitory concentration (IC50) at human TRPV1 [1] is 50 nM. Further, the inhibition in vivo at 0.1 µmol/kg with rats [2] worked out at 78%. For the same compound, the inhibition in vivo at 13 mg/kg in the data set with rats [4] turned out to be 43%. In addition, the “human TRPV1 H^+ (max % remain)” value at human TRPV1 [3] is listed as 60%.

As for `CC1(C)C[C@@H](NC(=O)Nc2ccc3c(c2)NC(=O)CO3)c2ccc(F)cc2O1` [Example 38, 1-[(4R)-7-fluoro-2,2-dimethyl-3,4-dihydro-2H-chromen-4-yl]-3-(3-oxo-3,4-dihydro-2H-1,4-benzoxazin-6-yl)urea], at human TRPV1 [1], the concentration for half-maximal inhibition (IC50) worked out at 56 nM. Besides, the inhibition in vivo at 0.1 µmol/kg in the data set on rats [2] came out at 69%. The inhibition in vivo at 10 mg/kg in the data set on rats [4] is 63%. For the same compound, the “human TRPV1 H^+ (max % remain)” value on human TRPV1 [3] came to 92%.

Consider `CC1(C)C[C@@H](NC(=O)Nc2ccc3c(c2)NC(=O)CC3)c2ccc(F)cc2O1` [Example 221, 1-[(4R)-7-fluoro-2,2-dimethyl-3,4-dihydro-2H-chromen-4-yl]-3-(2-oxo-1,2,3,4-tetrahydroquinolin-7-yl)urea], for which, on human TRPV1 [1], the IC50 stood at 1600 nM. For the same compound, in the data set on rats [2], the inhibition in vivo at 0.1 µmol/kg stood at 53%. Further, the “human TRPV1 H^+ (max % remain)” value at human TRPV1 [3] stood at 39%.

Regarding `C[C@]1(CF)C[C@@H](NC(=O)Nc2ccc3c(c2)NC(=O)CC3)c2ccc(Cl)cc2O1` [Example 241, 1-[(2R,4R)-7-chloro-2-(fluoromethyl)-2-methyl-3,4-dihydro-2H-chromen-4-yl]-3-(2-oxo-1,2,3,4-tetrahydroquinolin-7-yl)urea], at human TRPV1 [1], the half-inhibitory concentration (IC50) amounted to 130 nM. For the same compound, the inhibition in vivo at 0.1 µmol/kg with rats [2] amounted to 53%. In addition, on human TRPV1 [3], the “human TRPV1 H^+ (max % remain)” value is given as 54%.

Consider `O=C1COc2ccc(NC(=O)N[C@@H]3CC(CF)(CF)Oc4cc(C(F)(F)F)ccc43)cc2N1` [Example 324, 1-[(4R)-2,2-bis(fluoromethyl)-7-(trifluoromethyl)-3,4-dihydro-2H-chromen-4-yl]-3-(3-oxo-3,4-dihydro-2H-1,4-benzoxazin-6-yl)urea], for which the half-inhibitory concentration (IC50) on human TRPV1 [1] was found to be 19 nM. For the same compound, the inhibition in vivo at 10 mg/kg in the data set on rats [4] is 67%. The “human TRPV1 H^+ (max % remain)” value on human TRPV1 [3] came to 96%.

For `CN1CC[C@]23c4c5ccc(O)c4O[C@H]2[C@@H](O)C=C[C@H]3[C@H]1C5` [Morphine, morphine], the “% Increase in tail withdrawal latency” value with rats [5] was “+++ (greater than or equal to 25% increase)”.
